According to patent publication US9695133B2, “Quinazolinone-based oncogenic-RAS-selective lethal compounds and their use” (THE TRUSTEES OF COLUMBIA UNIVERSITY IN THE CITY OF NEW YORK, priority 2012, dated 2017):

Tested on: HT-1080 cells
Test: Metabolite profiling (LC-MS/MS) upon erastin treatment
Format: cell-based, human
Conditions: 5 μg/mL erastin 5 h
Protocol: 2 million HT-1080 cells were seeded in 10 cm culture dishes. […] 4 mL of cold 80% methanol was added to the cell monolayer to extract polar metabolites using a cell scraper. The cell lysate/methanol mixture was transferred to a 15 mL tube and centrifuged at 2,000×g at 4° C. for 10 minutes to pellet debris and proteins. The supernatant was transferred to a new tube and stored at −80° C. for liquid chromatography-mass spectrometry/mass spectrometry (LC-MS/MS) analysis. For lipid extract preparation, 3 mL of cold 100% isopropanol was added to the cell monolayer to scrape out cells. The resulting cell lysate/isopropanol mixture was transferred to a new 15 mL tube and centrifuged at 2,000×g at 4° C. for 10 minutes. The cleared supernatant was transferred to a new tube and stored at −20° C. for LC-MS/MS analysis.
The metabolite extract was subjected to LC-MS/MS analysis to determine the quantity of each metabolite in each sample.

CCOc1ccccc1-n1c(C(C)N2CCN(C(=O)COc3ccc(Cl)cc3)CC2)nc2ccccc2c1=O (stereo not drawn) [erastin]
C36:1 DAG Erastin/DMSO: 0.9334 | C36:1 DAG log2 (Erastin/DMSO): −0.09938 | C36:1 PC Erastin/DMSO: 0.6286 | C36:1 PC log2 (Erastin/DMSO): −0.6697 | C36:1 PE Erastin/DMSO: 0.9953 | C36:1 PE log2 (Erastin/DMSO): −0.006813 | C36:2 DAG Erastin/DMSO: 0.9163 | C36:2 DAG log2 (Erastin/DMSO): −0.1261 | C36:2 PC Erastin/DMSO: 0.8729 | C36:2 PC log2 (Erastin/DMSO): −0.1962 | C36:2 PE Erastin/DMSO: 0.9352 | C36:2 PE log2 (Erastin/DMSO): −0.09672 | C36:2 PI Erastin/DMSO: 1.021 | C36:2 PI log2 (Erastin/DMSO): 0.02948 | C36:3 DAG Erastin/DMSO: 1.092 | C36:3 DAG log2 (Erastin/DMSO): 0.1266 | C36:3 PC Erastin/DMSO: 0.9251 | C36:3 PC log2 (Erastin/DMSO): −0.1124 | C36:4 PC Erastin/DMSO: 0.9027 | C36:4 PC log2 (Erastin/DMSO): −0.1477 | C36:4 PI Erastin/DMSO: 1.395 | C36:4 PI log2 (Erastin/DMSO): 0.4801 | C38:2 PC Erastin/DMSO: 0.8405 | C38:2 PC log2 (Erastin/DMSO): −0.2507 | C38:3 PC Erastin/DMSO: 0.6597 | C38:3 PC log2 (Erastin/DMSO): −0.6001 | C38:4 PC Erastin/DMSO: 0.6814 | C38:4 PC log2 (Erastin/DMSO): −0.5533 | C38:4 PI Erastin/DMSO: 0.9823 | C38:4 PI log2 (Erastin/DMSO): −0.02583 | C38:5 PC Erastin/DMSO: 0.8836 | C38:5 PC log2 (Erastin/DMSO): −0.1786 | C38:6 PC Erastin/DMSO: 0.9708 | C38:6 PC log2 (Erastin/DMSO): −0.0428 | C44:0 TAG Erastin/DMSO: 0.9683 | C44:0 TAG log2 (Erastin/DMSO): −0.04648 | C44:1 TAG Erastin/DMSO: 1.639 | C44:1 TAG log2 (Erastin/DMSO): 0.7127 | C46:0 TAG Erastin/DMSO: 0.9424 | C46:0 TAG log2 (Erastin/DMSO): −0.08557 | C46:1 TAG Erastin/DMSO: 1.171 | C46:1 TAG log2 (Erastin/DMSO): 0.2276 | C46:2 TAG Erastin/DMSO: 1.542 | C46:2 TAG log2 (Erastin/DMSO): 0.6247 | C48:0 TAG Erastin/DMSO: 1.098 | C48:0 TAG log2 (Erastin/DMSO): 0.1354 | C48:1 TAG Erastin/DMSO: 1.059 | C48:1 TAG log2 (Erastin/DMSO): 0.08209 | C48:2 TAG Erastin/DMSO: 1.121 | C48:2 TAG log2 (Erastin/DMSO): 0.1647 | C48:3 TAG Erastin/DMSO: 1.52 | C48:3 TAG log2 (Erastin/DMSO): 0.6042 | C50:0 TAG Erastin/DMSO: 0.9625 | C50:0 TAG log2 (Erastin/DMSO): −0.05513 | C50:1 TAG Erastin/DMSO: 1.011 | C50:1 TAG log2 (Erastin/DMSO): 0.01634 | C50:2 TAG Erastin/DMSO: 1.073 | C50:2 TAG log2 (Erastin/DMSO): 0.1023 | C50:3 TAG Erastin/DMSO: 1.241 | C50:3 TAG log2 (Erastin/DMSO): 0.3115 | C50:4 TAG Erastin/DMSO: 1.682 | C50:4 TAG log2 (Erastin/DMSO): 0.7502 | C50:5 TAG Erastin/DMSO: 1.277 | C50:5 TAG log2 (Erastin/DMSO): 0.3528 | C52:0 TAG Erastin/DMSO: 1.041 | C52:0 TAG log2 (Erastin/DMSO): 0.05755 | C52:1 TAG Erastin/DMSO: 0.897 | C52:1 TAG log2 (Erastin/DMSO): −0.1568 | C52:2 TAG Erastin/DMSO: 0.9964 | C52:2 TAG log2 (Erastin/DMSO): −0.005196 | C52:3 TAG Erastin/DMSO: 1.124 | C52:3 TAG log2 (Erastin/DMSO): 0.168 | C52:4 TAG Erastin/DMSO: 1.305 | C52:4 TAG log2 (Erastin/DMSO): 0.3844 | C52:5 TAG Erastin/DMSO: 1.279 | C52:5 TAG log2 (Erastin/DMSO): 0.355 | C52:6 TAG Erastin/DMSO: 1.602 | C52:6 TAG log2 (Erastin/DMSO): 0.6796 | C54:1 TAG Erastin/DMSO: 0.8628 | C54:1 TAG log2 (Erastin/DMSO): −0.2129 | C54:2 TAG Erastin/DMSO: 0.8696 | C54:2 TAG log2 (Erastin/DMSO): −0.2016 | C54:3 TAG Erastin/DMSO: 0.9692 | C54:3 TAG log2 (Erastin/DMSO): −0.04517 | C54:4 TAG Erastin/DMSO: 1.178 | C54:4 TAG log2 (Erastin/DMSO): 0.2363 | C54:5 TAG Erastin/DMSO: 1.315 | C54:5 TAG log2 (Erastin/DMSO): 0.3952 | C54:6 TAG Erastin/DMSO: 1.267 | C54:6 TAG log2 (Erastin/DMSO): 0.3411 | C54:7 TAG Erastin/DMSO: 1.062 | C54:7 TAG log2 (Erastin/DMSO): 0.08689 | C54:8 TAG Erastin/DMSO: 0.9067 | C54:8 TAG log2 (Erastin/DMSO): −0.1413 | C54:9 TAG Erastin/DMSO: 1.331 | C54:9 TAG log2 (Erastin/DMSO): 0.4129 | C54:10 TAG Erastin/DMSO: 0.8851 | C54:10 TAG log2 (Erastin/DMSO): −0.1761 | C56:2 TAG Erastin/DMSO: 0.9703 | C56:2 TAG log2 (Erastin/DMSO): −0.04354 | C56:3 TAG Erastin/DMSO: 0.8103 | C56:3 TAG log2 (Erastin/DMSO): −0.3035 | C56:4 TAG Erastin/DMSO: 0.9505 | C56:4 TAG log2 (Erastin/DMSO): −0.07326 | C56:5 TAG Erastin/DMSO: 1.134 | C56:5 TAG log2 (Erastin/DMSO): 0.1814 | C56:6 TAG Erastin/DMSO: 1.047 | C56:6 TAG log2 (Erastin/DMSO): 0.06693 | C56:7 TAG Erastin/DMSO: 1.062 | C56:7 TAG log2 (Erastin/DMSO): 0.08653 | C56:8 TAG Erastin/DMSO: 1.178 | C56:8 TAG log2 (Erastin/DMSO): 0.2368 | C56:9 TAG Erastin/DMSO: 0.9865 | C56:9 TAG log2 (Erastin/DMSO): −0.01961 | C56:10 TAG Erastin/DMSO: 0.9129 | C56:10 TAG log2 (Erastin/DMSO): −0.1315 | C58:6 TAG Erastin/DMSO: 1.047 | C58:6 TAG log2 (Erastin/DMSO): 0.06641 | C58:7 TAG Erastin/DMSO: 1.071 | C58:7 TAG log2 (Erastin/DMSO): 0.09945 | C58:8 TAG Erastin/DMSO: 1.118 | C58:8 TAG log2 (Erastin/DMSO): 0.1603 | C58:9 TAG Erastin/DMSO: 1.176 | C58:9 TAG log2 (Erastin/DMSO): 0.2336 | CMP Erastin/DMSO: 0.9376 | CMP log2 (Erastin/DMSO): −0.09295 | DHAP Erastin/DMSO: 1.227 | DHAP log2 (Erastin/DMSO): 0.2955 | F1P Erastin/DMSO: 0.9652 | F1P log2 (Erastin/DMSO): −0.05103 | F16DP/F26DP/G16DP Erastin/DMSO: 1.303 | F16DP/F26DP/G16DP log2 (Erastin/DMSO): 0.3816
